According to publication PMC10272271, “MAM-2201 acute administration impairs motor, sensorimotor, prepulse inhibition, and memory functions in mice: a comparison with its analogue AM-2201” (Psychopharmacology, 2023):

Assays:
CD-1 male mice [1] = system: CD-1 male mice; design: method as in Bilel et al. ([2020]); conditions: i.p., value ± SEM, elaborated from earlier data, ref Bilel et al. ([2020]); cited from earlier work
CD-1 male mice [2] = system: CD-1 male mice; design: method as in Bilel et al. ([2020]); conditions: i.p., value ± SEM, elaborated from earlier data, ref Bilel et al. ([2020]); cited from earlier work; remark: listed apart in the source
CD-1 male mice [3] = assay: Visual object response test; assay type: in vivo, mouse
Experimental: For the overall study 234 mice were used. In sensorimotor (visual object, visual placing, acoustic, and overall tactile responses) tests for MAM-2201, experiments for each treatment dose (vehicle or 5 different MAM-2201 doses, 0.01, 0.1, 1, 3, and 6 mg/kg) used 8 mice (total mice used: 48) and for MAM-2201 with AM-251 pretreatment, experiments for each dose regimen (vehicle + AM-251 or MAM-2201 + AM-251, 6 mg/kg) used 16 mice. In the analysis of spontaneous locomotion (open field test) for MAM-2201, experiments for each treatment regimen (vehicle or 4 different MAM-2201 doses, 0.01, 0.1, 1, and 6 mg/kg) used 10 mice (total mice used: 50). In the PPI test for MAM-2201, experiments for each treatment (vehicle or 3 different MAM-2201 doses, 0.01, 0.1, and 1 mg/kg) used 10 mice (total mice used: 40), while for MAM-2201 experiments in the Novel Object Recognition (NOR) test for each treatment regimen (vehicle or 3 different MAM-2201 and vehicle or 3 different AM-2201 doses, 0.01, 0.1, and 1 mg/kg) used 10 mice (total mice used: 80). In the present study the effect of MAM-2201 on sensorimotor responses was investigated using a battery of behavioral tests widely used in studies of “safety-pharmacology,” that we routinely adopted in our laboratory, for the preclinical characterization of new molecules in rodents (Ossato et al. [2015]; Vigolo et al. [2015]; Bilel et al. [2020]). The voluntary and involuntary motor responses of the animal to different visual, acoustic, and tactile stimuli were evaluated according to the procedure described in our previous studies (Ossato et al. [2015]; Bilel et al. [2020]). To reduce the number of animals used, mice were evaluated in functional observational tests carried out in a consecutive manner according to the following time scheme: observation of visual object responses (frontal and lateral view), acoustic response, tactile response (vibrissae, corneal and pinnae reflexes), and visual placing response. Sensorimotor tests were measured at 10, 30, 60, 120, 180, 240, and 300 min after injections for the evaluation of the visual object, acoustic and the tactile response, and at 15, 45, 75, 135, 195, 255, and 315 min after injections for the evaluation of visual placing response. Behavioral tests were conducted in a thermostated (temperature: 20–22 °C, humidity: 45–55%) and light (150 lx) controlled room with a background noise of 40 ± 4 dB. The apparatus for the visual object, acoustic and tactile sensorimotor tests consisted of an experimental chamber (350 × 350 × 350 mm) with black methacrylate walls and a transparent front door. During the week before the experiment, each mouse was placed in the box and handled (once a day) on every other day, i.e., 3 times, to get used to both the environment and the experimenter. To avoid olfactory cues, cages were carefully cleaned with a dilute (5%) ethanol solution and rinsed with water. All experiments were performed between 8:30 AM and 2:00 PM and conducted by trained observers working in pairs who were blinded to the treatment being tested (Ossato et al. [2015]). The behavior of mice was videotaped by a camera (B/W USB Camera day & night with varifocal lens; Ugo Basile, Italy) placed at the top or on one side of the box and analyzed off-line by a different trained operator. Spontaneous locomotion studies were conducted in a separate set of animals through ANYMAZE test. Sensory gating was evaluated by analysis of the pre-pulse inhibition (PPI) of the acoustic startle reflex as previously described (Bilel et al. [2020]).
Visual object response test was used to evaluate the ability of the mouse to see an object approaching from the front (frontal view) or the side (lateral view) that typically induces the animal to shift or turn the head, bring the forelimbs in the position of “defense” or retreat from it. For the frontal visual response, a white horizontal bar was moved frontally to the mouse head and the maneuver was repeated 3 times. […]

CD-1 male mice [4] = assay: Acoustic response test; assay type: in vivo, mouse; conditions: for acoustic response reduced to about: immediately after administration
Experimental: For the overall study 234 mice were used. In sensorimotor (visual object, visual placing, acoustic, and overall tactile responses) tests for MAM-2201, experiments for each treatment dose (vehicle or 5 different MAM-2201 doses, 0.01, 0.1, 1, 3, and 6 mg/kg) used 8 mice (total mice used: 48) and for MAM-2201 with AM-251 pretreatment, experiments for each dose regimen (vehicle + AM-251 or MAM-2201 + AM-251, 6 mg/kg) used 16 mice. In the analysis of spontaneous locomotion (open field test) for MAM-2201, experiments for each treatment regimen (vehicle or 4 different MAM-2201 doses, 0.01, 0.1, 1, and 6 mg/kg) used 10 mice (total mice used: 50). In the PPI test for MAM-2201, experiments for each treatment (vehicle or 3 different MAM-2201 doses, 0.01, 0.1, and 1 mg/kg) used 10 mice (total mice used: 40), while for MAM-2201 experiments in the Novel Object Recognition (NOR) test for each treatment regimen (vehicle or 3 different MAM-2201 and vehicle or 3 different AM-2201 doses, 0.01, 0.1, and 1 mg/kg) used 10 mice (total mice used: 80). In the present study the effect of MAM-2201 on sensorimotor responses was investigated using a battery of behavioral tests widely used in studies of “safety-pharmacology,” that we routinely adopted in our laboratory, for the preclinical characterization of new molecules in rodents (Ossato et al. [2015]; Vigolo et al. [2015]; Bilel et al. [2020]). The voluntary and involuntary motor responses of the animal to different visual, acoustic, and tactile stimuli were evaluated according to the procedure described in our previous studies (Ossato et al. [2015]; Bilel et al. [2020]). To reduce the number of animals used, mice were evaluated in functional observational tests carried out in a consecutive manner according to the following time scheme: observation of visual object responses (frontal and lateral view), acoustic response, tactile response (vibrissae, corneal and pinnae reflexes), and visual placing response. Sensorimotor tests were measured at 10, 30, 60, 120, 180, 240, and 300 min after injections for the evaluation of the visual object, acoustic and the tactile response, and at 15, 45, 75, 135, 195, 255, and 315 min after injections for the evaluation of visual placing response. Behavioral tests were conducted in a thermostated (temperature: 20–22 °C, humidity: 45–55%) and light (150 lx) controlled room with a background noise of 40 ± 4 dB. The apparatus for the visual object, acoustic and tactile sensorimotor tests consisted of an experimental chamber (350 × 350 × 350 mm) with black methacrylate walls and a transparent front door. During the week before the experiment, each mouse was placed in the box and handled (once a day) on every other day, i.e., 3 times, to get used to both the environment and the experimenter. To avoid olfactory cues, cages were carefully cleaned with a dilute (5%) ethanol solution and rinsed with water. All experiments were performed between 8:30 AM and 2:00 PM and conducted by trained observers working in pairs who were blinded to the treatment being tested (Ossato et al. [2015]). The behavior of mice was videotaped by a camera (B/W USB Camera day & night with varifocal lens; Ugo Basile, Italy) placed at the top or on one side of the box and analyzed off-line by a different trained operator. […] Sensory gating was evaluated by analysis of the pre-pulse inhibition (PPI) of the acoustic startle reflex as previously described (Bilel et al. [2020]). […]

CD-1 male mice [5] = assay: Spontaneous locomotor activity (open field, ANY-maze); assay type: in vivo, mouse
Experimental: (§1) For the overall study 234 mice were used. In sensorimotor (visual object, visual placing, acoustic, and overall tactile responses) tests for MAM-2201, experiments for each treatment dose (vehicle or 5 different MAM-2201 doses, 0.01, 0.1, 1, 3, and 6 mg/kg) used 8 mice (total mice used: 48) and for MAM-2201 with AM-251 pretreatment, experiments for each dose regimen (vehicle + AM-251 or MAM-2201 + AM-251, 6 mg/kg) used 16 mice. In the analysis of spontaneous locomotion (open field test) for MAM-2201, experiments for each treatment regimen (vehicle or 4 different MAM-2201 doses, 0.01, 0.1, 1, and 6 mg/kg) used 10 mice (total mice used: 50). […] The voluntary and involuntary motor responses of the animal to different visual, acoustic, and tactile stimuli were evaluated according to the procedure described in our previous studies (Ossato et al. [2015]; Bilel et al. [2020]). To reduce the number of animals used, mice were evaluated in functional observational tests carried out in a consecutive manner according to the following time scheme: observation of visual object responses (frontal and lateral view), acoustic response, tactile response (vibrissae, corneal and pinnae reflexes), and visual placing response. […] Sensory gating was evaluated by analysis of the pre-pulse inhibition (PPI) of the acoustic startle reflex as previously described (Bilel et al. [2020]). […]

CD-1 male mice [6] = assay: Overall tactile response (vibrissae, corneal, pinnae reflexes); assay type: in vivo, mouse
Experimental: For the overall study 234 mice were used. In sensorimotor (visual object, visual placing, acoustic, and overall tactile responses) tests for MAM-2201, experiments for each treatment dose (vehicle or 5 different MAM-2201 doses, 0.01, 0.1, 1, 3, and 6 mg/kg) used 8 mice (total mice used: 48) and for MAM-2201 with AM-251 pretreatment, experiments for each dose regimen (vehicle + AM-251 or MAM-2201 + AM-251, 6 mg/kg) used 16 mice. In the analysis of spontaneous locomotion (open field test) for MAM-2201, experiments for each treatment regimen (vehicle or 4 different MAM-2201 doses, 0.01, 0.1, 1, and 6 mg/kg) used 10 mice (total mice used: 50). In the PPI test for MAM-2201, experiments for each treatment (vehicle or 3 different MAM-2201 doses, 0.01, 0.1, and 1 mg/kg) used 10 mice (total mice used: 40), while for MAM-2201 experiments in the Novel Object Recognition (NOR) test for each treatment regimen (vehicle or 3 different MAM-2201 and vehicle or 3 different AM-2201 doses, 0.01, 0.1, and 1 mg/kg) used 10 mice (total mice used: 80). In the present study the effect of MAM-2201 on sensorimotor responses was investigated using a battery of behavioral tests widely used in studies of “safety-pharmacology,” that we routinely adopted in our laboratory, for the preclinical characterization of new molecules in rodents (Ossato et al. [2015]; Vigolo et al. [2015]; Bilel et al. [2020]). The voluntary and involuntary motor responses of the animal to different visual, acoustic, and tactile stimuli were evaluated according to the procedure described in our previous studies (Ossato et al. [2015]; Bilel et al. [2020]). To reduce the number of animals used, mice were evaluated in functional observational tests carried out in a consecutive manner according to the following time scheme: observation of visual object responses (frontal and lateral view), acoustic response, tactile response (vibrissae, corneal and pinnae reflexes), and visual placing response. Sensorimotor tests were measured at 10, 30, 60, 120, 180, 240, and 300 min after injections for the evaluation of the visual object, acoustic and the tactile response, and at 15, 45, 75, 135, 195, 255, and 315 min after injections for the evaluation of visual placing response. Behavioral tests were conducted in a thermostated (temperature: 20–22 °C, humidity: 45–55%) and light (150 lx) controlled room with a background noise of 40 ± 4 dB. […] The behavior of mice was videotaped by a camera (B/W USB Camera day & night with varifocal lens; Ugo Basile, Italy) placed at the top or on one side of the box and analyzed off-line by a different trained operator. […] Sensory gating was evaluated by analysis of the pre-pulse inhibition (PPI) of the acoustic startle reflex as previously described (Bilel et al. [2020]). […]

CD-1 male mice [7] = assay: Visual placing response test; assay type: in vivo, mouse
Experimental: as §1, with “50). In the PPI test for MAM-2201, experiments for each treatment (vehicle or 3 different MAM-2201 doses, 0.01, 0.1, and 1 mg/kg) used 10 mice (total mice used: 40), while for MAM-2201 experiments in the Novel Object Recognition (NOR) test for each treatment regimen (vehicle or 3 different MAM-2201 and vehicle or 3 different AM-2201 doses, 0.01, 0.1, and 1 mg/kg) used 10 mice (total mice used: 80).” for “50).”, “response. Sensorimotor tests were measured at 10, 30, 60, 120, 180, 240, and 300 min after injections for the evaluation of the visual object, acoustic and the tactile response, and at 15, 45, 75, 135, 195, 255, and 315 min after injections for the evaluation of visual placing response.” for “response.”

[8] = Mus musculus, ip, mice, value ± SEM

Compound | ED50 (mg/kg), Visual object (CD-1 male mice [1]) [mg/kg] | ED50 (mg/kg), Overall tactile (CD-1 male mice [2]) [mg/kg] | effect on visual object response (CD-1 male mice [3]; 0.01 mg/kg i.p., at 30 min after injection) | effect on visual object response (CD-1 male mice [3]; 0.1 mg/kg i.p.) | effect on visual object response (CD-1 male mice [3]; 1 mg/kg i.p., at 30 min) | effect on visual object response (CD-1 male mice [3]; 3 and 6 mg/kg i.p., until end of test (5 h)) | ED50 (CD-1 male mice [3]; Mus musculus, ip, mice, value ± SEM, dose for 50% of overall mean effect) [mg/kg] | acoustic response reduced to about (CD-1 male mice [4]; 1 mg/kg i.p.) | acoustic response reduced to about (CD-1 male mice [4]; 3 mg/kg i.p.) [%] | acoustic response reduced to about (CD-1 male mice [4]; 6 mg/kg i.p.) [%] | ED50 (CD-1 male mice [4]; Mus musculus, ip, mice, i.p., value ± SEM, acoustic response test, read-out: ED50 (mg/kg), Startle reflex) [mg/kg] | effect on immobility time (CD-1 male mice [5]; 1 and 6 mg/kg i.p., first hour) | time during which motor capacity was affected (CD-1 male mice [5]; open field test) [min] | effect on overall tactile response (CD-1 male mice [6]; 1 mg/kg i.p., first hour after administration) | effect on overall tactile response (CD-1 male mice [6]; 3 and 6 mg/kg i.p.) | ED50 (CD-1 male mice [6]; [8]) [mg/kg] | effect on visual placing response (CD-1 male mice [7]; 0.01-6 mg/kg i.p., persisted up to 5 h at all doses) | ED50 (CD-1 male mice [7]; [8]) [mg/kg]
O=C(c1cccc2ccccc12)c1cn(CCCCCF)c2ccccc12 [AM-2201, 1-[(5-Fluoropentyl)-1H-indol-3-yl](1-naphthylenyl) methanone] | 1.976 ± 0.063 | 2.120 ± 0.013 |  |  |  |  |  |  |  |  |  |  |  |  |  |  |  | 
Cc1ccc(C(=O)c2cn(CCCCCF)c3ccccc23)c2ccccc12 [MAM-2201, 1-[(5-fluoropentyl)-1H-indol-3-yl](4-methyl-1-naphthalenyl) methanone] |  |  | transiently reduced | long-lasting inhibition | total inhibition | deep and prolonged impairment | 1.14 ± 0.089 | about 20% | ~80 | ~100 | 1.25 ± 0.013 | increased | ≤ 60 | slightly reduced | deeper and more persistent effect | 1.861 ± 0.011 | drastic impairment | 0.291 ± 0.025
